Laboratory results from ChEMBL document CHEMBL5523766 (J Med Chem, 2024).

Tests used:
[1] = molecular target: Serine/threonine-protein kinase 17B (Homo sapiens, UniProt O94768); assay: Inhibition of human DRAK2
[2] = AUCinfinity in ICR mouse at 50 mg/kg,po measured upto 24 hrs by LC-MS/MS analysis; type: ADME, organism-based; details: in vivo
[3] = Lipophilicity, logD of compound at pH 7.4; type: physicochemical; details: buffer
CYP2C19 = CYP2C19 (Homo sapiens, UniProt P33261); assay: Time dependent inhibition of CYP2C19 (unknown origin) at 10 uM relative to control; type: ADME; details: read-out: TDI
PC-3 = assay: Antiproliferative activity against human PC-3 cells assessed as inhibition of cell growth incubated for 72 hrs by MTS assay; type: functional, cell-based; details: PC-3, 72 h
DLD-1 = assay: Antiproliferative activity against human DLD-1 cells assessed as inhibition of cell growth incubated for 72 hrs by MTS assay; type: functional, cell-based; details: DLD-1, 72 h
[4] = molecular target: AMPK alpha2/beta1/gamma1 (Homo sapiens) (UniProt P54646+P54619+Q9Y478); assay: Inhibition of human AMPK alpha2/beta1/gamma1 at 10 uM relative to control; type: protein-complex assay
OCI-Ly10 = assay: Antiproliferative activity against human OCI-Ly10 cells assessed as inhibition of cell growth incubated for 72 hrs by MTS assay; type: functional, cell-based; details: OCI-Ly10, 72 h
[5] = Efflux ratio of apparent permeability across […] side in dog MDCK-MDR1 cells; type: ADME, cell-based, Canis lupus familiaris
[6] = molecular target: Interleukin-1 receptor-associated kinase 4 (Homo sapiens, UniProt Q9NWZ3); assay: Inhibition of human IRAK4
[7] = molecular target: T1, Tyrosine-protein kinase JAK1 (Homo sapiens, UniProt P23458); assay: Inhibition of human JAK1
LoVo = assay: Antiproliferative activity against human LoVo cells assessed as inhibition of cell growth incubated for 72 hrs by MTS assay; type: functional, cell-based
[8] = AUClast in ICR mouse at 50 mg/kg,po measured upto 24 hrs by LC-MS/MS analysis; type: ADME, organism-based; details: in vivo
Aurora kinase B [9] = molecular target: T2, Aurora kinase B (Homo sapiens, UniProt Q96GD4); assay: Inhibition of human Aurora B
[10] = molecular target: Serine/threonine-protein kinase 17B (Homo sapiens) (UniProt O94768); assay: Inhibition of human DRAK2 at 10 uM relative to control
[11] = molecular target: Receptor-type tyrosine-protein kinase FLT3 (Homo sapiens) (UniProt P36888); assay: Inhibition of human FLT3 at 10 uM relative to control
A2780 = assay: Antiproliferative activity against human A2780 cells assessed as inhibition of cell growth incubated for 72 hrs by MTS assay; type: functional, cell-based; details: A2780, 72 h
SUD4 = assay: Antiproliferative activity against human SU-DHL-4 cells assessed as inhibition of cell growth incubated for 72 hrs by MTS assay; type: functional, cell-based; details: SU-DHL-4, 72 h
[12] = molecular target: Tyrosine-protein kinase ABL1 (Homo sapiens, UniProt P00519); assay: Inhibition of human ABL
[13] = molecular target: T3, Cyclin-dependent kinase 2 (Homo sapiens, UniProt P24941); assay: Inhibition of human CDK2 at 10 uM relative to control
[14] = molecular target: NUAK family SNF1-like kinase 1 (Homo sapiens, UniProt O60285); assay: Inhibition of human ARK5
[15] = molecular target: Tyrosine-protein kinase Mer (Homo sapiens) (UniProt Q12866); assay: Inhibition of human MER at 10 uM relative to control
[16] = Tmax in ICR mouse at 50 mg/kg,po measured upto 24 hrs by LC-MS/MS analysis; type: ADME, organism-based; details: in vivo
[17] = molecular target: T4, Serine/threonine-protein kinase mTOR (Homo sapiens, UniProt P42345); assay: Inhibition of human mTOR at 10 uM relative to control
[18] = molecular target: T5, Tyrosine-protein kinase Lck (Homo sapiens, UniProt P06239); assay: Inhibition of human LCK
[19] = Cmax in ICR mouse at 50 mg/kg,po measured upto 24 hrs by LC-MS/MS analysis; type: ADME, organism-based; details: in vivo
[20] = Apparent permeability across basolateral to apical side in dog MDCK-MDR1 cells; type: ADME, cell-based, Canis lupus familiaris
Aurora kinase B [21] = molecular target: T2, Aurora kinase B; assay: Inhibition of human Aurora B at 10 uM relative to control
[22] = molecular target: T6, Tyrosine-protein kinase Lyn (Homo sapiens, UniProt P07948); assay: Inhibition of human LYN
[23] = Half life in ICR mouse at 50 mg/kg,po measured upto 24 hrs by LC-MS/MS analysis; type: ADME, organism-based; details: in vivo
[24] = molecular target: Serine/threonine-protein kinase BRSK2 (Homo sapiens) (UniProt Q8IWQ3); assay: Inhibition of human BRSK2 at 10 uM relative to control
[25] = Efflux ratio of apparent permeability across […] side in human Caco-2 cells; type: ADME, cell-based
Granta-519 = assay: Antiproliferative activity against human Granta-519 cells assessed as inhibition of cell growth incubated for 72 hrs by MTS assay; type: functional, cell-based; details: Granta-519, 72 h
[26] = molecular target: T7, Tyrosine-protein kinase BTK (Homo sapiens, UniProt Q06187); assay: Inhibition of human BTK
ATR/ATRIP = ATR/ATRIP (Homo sapiens, UniProt Q13535); assay: Inhibition of ATR/ATRIP (unknown origin) using 5-FAM-AK-17 as substrate preincubated with compound for 10 mins followed by ATP addition and measured after 240 mins by mobility shift assay; type: protein-complex assay
[27] = Plasma protein binding in mouse; type: ADME, cell-free; details: read-out: PPB (converted)
CYP2C9 = CYP2C9 (Homo sapiens, UniProt P11712); assay: Time dependent inhibition of CYP2C9 (unknown origin) at 10 uM relative to control; type: ADME; details: read-out: TDI
[28] = Apparent permeability across apical to basolateral side in human Caco-2 cells; type: ADME, cell-based
CYP2D6 = CYP2D6 (Homo sapiens, UniProt P10635); assay: Time dependent inhibition of CYP2D6 (unknown origin) at 10 uM relative to control; type: ADME; details: read-out: TDI
CAPAN-1 = assay: Antiproliferative activity against human CAPAN-1 cells assessed as inhibition of cell growth incubated for 72 hrs by MTS assay; type: functional, cell-based; details: CAPAN-1, 72 h
[29] = molecular target: Serine/threonine-protein kinase BRSK2 (Homo sapiens, UniProt Q8IWQ3); assay: Inhibition of human BRSK2
[30] = molecular target: T6, Tyrosine-protein kinase Lyn; assay: Inhibition of human LYN at 10 uM relative to control
[31] = molecular target: T3, Cyclin-dependent kinase 2; assay: Inhibition of human CDK2
[32] = Apparent permeability across apical to basolateral side in dog MDCK-MDR1 cells; type: ADME, cell-based, Canis lupus familiaris
[33] = molecular target: NUAK family SNF1-like kinase 1 (Homo sapiens) (UniProt O60285); assay: Inhibition of human ARK5 at 10 uM relative to control
[34] = molecular target: T7, Tyrosine-protein kinase BTK; assay: Inhibition of human BTK at 10 uM relative to control
[35] = molecular target: T5, Tyrosine-protein kinase Lck; assay: Inhibition of human LCK at 10 uM relative to control
[36] = molecular target: T4, Serine/threonine-protein kinase mTOR; assay: Inhibition of human mTOR
AMPK alpha2/beta1/gamma1 = AMPK alpha2/beta1/gamma1 (Homo sapiens, UniProt P54619+P54646+Q9Y478); assay: Inhibition of human AMPK alpha2/beta1/gamma1; type: protein-complex assay
CYP1A2 = CYP1A2 (Homo sapiens, UniProt P05177); assay: Time dependent inhibition of CYP1A2 (unknown origin) at 10 uM relative to control; type: ADME; details: read-out: TDI
CYP3A4 = CYP3A4 (Homo sapiens, UniProt P08684); assay: Time dependent inhibition of CYP3A4 (unknown origin) at 10 uM relative to control; type: ADME; details: read-out: TDI
NCI-H446 = assay: Antiproliferative activity against human NCI-H446 cells assessed as inhibition of cell growth incubated for 72 hrs by MTS assay; type: functional, cell-based; details: NCI-H446, 72 h
[37] = molecular target: Tyrosine-protein kinase Mer (Homo sapiens, UniProt Q12866); assay: Inhibition of human MER
[38] = molecular target: T1, Tyrosine-protein kinase JAK1; assay: Inhibition of human JAK1 at 10 uM relative to control
HT-29 = assay: Antiproliferative activity against human HT-29 cells assessed as inhibition of cell growth incubated for 72 hrs by MTS assay; type: functional, cell-based; details: HT-29, 72 h
[39] = molecular target: Interleukin-1 receptor-associated kinase 4 (Homo sapiens) (UniProt Q9NWZ3); assay: Inhibition of human IRAK4 at 10 uM relative to control
[40] = Apparent permeability across basolateral to apical side in human Caco-2 cells; type: ADME, cell-based
HCT-116 = assay: Antiproliferative activity against human HCT-116 cells assessed as inhibition of cell growth incubated for 72 hrs by MTS assay; type: functional, cell-based; details: HCT-116, 72 h
[41] = molecular target: Receptor-type tyrosine-protein kinase FLT3 (Homo sapiens, UniProt P36888); assay: Inhibition of human FLT3

T2 sequence (Q96GD4 whole entry): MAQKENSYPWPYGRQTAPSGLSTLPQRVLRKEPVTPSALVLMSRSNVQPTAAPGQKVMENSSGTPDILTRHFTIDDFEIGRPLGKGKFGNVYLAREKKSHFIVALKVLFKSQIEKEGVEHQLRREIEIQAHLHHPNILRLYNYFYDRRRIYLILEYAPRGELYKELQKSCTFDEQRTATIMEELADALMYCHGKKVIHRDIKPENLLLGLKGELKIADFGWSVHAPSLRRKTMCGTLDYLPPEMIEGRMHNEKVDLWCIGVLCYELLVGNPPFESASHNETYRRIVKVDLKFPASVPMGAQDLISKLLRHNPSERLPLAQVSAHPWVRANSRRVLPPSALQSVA
T1 sequence (P23458 whole entry): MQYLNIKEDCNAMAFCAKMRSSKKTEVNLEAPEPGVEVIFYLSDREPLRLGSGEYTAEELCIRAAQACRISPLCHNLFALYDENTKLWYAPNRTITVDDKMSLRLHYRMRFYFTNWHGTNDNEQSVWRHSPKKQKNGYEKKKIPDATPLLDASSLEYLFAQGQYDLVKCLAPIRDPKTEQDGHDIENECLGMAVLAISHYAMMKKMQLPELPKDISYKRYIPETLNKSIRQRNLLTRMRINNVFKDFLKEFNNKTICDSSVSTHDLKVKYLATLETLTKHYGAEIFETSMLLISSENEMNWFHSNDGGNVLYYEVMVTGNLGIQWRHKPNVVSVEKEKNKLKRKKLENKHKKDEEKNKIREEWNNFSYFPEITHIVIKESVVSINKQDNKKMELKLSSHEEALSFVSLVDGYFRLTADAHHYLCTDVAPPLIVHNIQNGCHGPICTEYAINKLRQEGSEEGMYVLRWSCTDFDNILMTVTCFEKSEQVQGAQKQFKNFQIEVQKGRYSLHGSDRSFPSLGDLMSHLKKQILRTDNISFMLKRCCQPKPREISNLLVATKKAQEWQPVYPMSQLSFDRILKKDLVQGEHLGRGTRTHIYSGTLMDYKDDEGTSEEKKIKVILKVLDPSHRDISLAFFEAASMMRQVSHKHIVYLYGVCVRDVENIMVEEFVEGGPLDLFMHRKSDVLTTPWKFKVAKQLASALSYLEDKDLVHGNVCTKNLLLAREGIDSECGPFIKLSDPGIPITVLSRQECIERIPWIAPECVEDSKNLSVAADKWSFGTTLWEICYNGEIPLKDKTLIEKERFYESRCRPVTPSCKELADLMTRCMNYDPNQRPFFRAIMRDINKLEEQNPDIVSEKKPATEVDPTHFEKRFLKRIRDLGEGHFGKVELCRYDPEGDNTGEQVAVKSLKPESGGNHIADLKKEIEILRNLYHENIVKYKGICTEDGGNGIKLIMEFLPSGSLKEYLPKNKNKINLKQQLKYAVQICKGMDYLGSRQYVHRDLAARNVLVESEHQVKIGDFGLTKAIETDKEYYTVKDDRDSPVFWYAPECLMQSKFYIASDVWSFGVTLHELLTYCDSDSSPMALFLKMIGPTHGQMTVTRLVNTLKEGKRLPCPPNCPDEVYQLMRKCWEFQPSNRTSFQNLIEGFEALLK
T7 sequence (Q06187 whole entry): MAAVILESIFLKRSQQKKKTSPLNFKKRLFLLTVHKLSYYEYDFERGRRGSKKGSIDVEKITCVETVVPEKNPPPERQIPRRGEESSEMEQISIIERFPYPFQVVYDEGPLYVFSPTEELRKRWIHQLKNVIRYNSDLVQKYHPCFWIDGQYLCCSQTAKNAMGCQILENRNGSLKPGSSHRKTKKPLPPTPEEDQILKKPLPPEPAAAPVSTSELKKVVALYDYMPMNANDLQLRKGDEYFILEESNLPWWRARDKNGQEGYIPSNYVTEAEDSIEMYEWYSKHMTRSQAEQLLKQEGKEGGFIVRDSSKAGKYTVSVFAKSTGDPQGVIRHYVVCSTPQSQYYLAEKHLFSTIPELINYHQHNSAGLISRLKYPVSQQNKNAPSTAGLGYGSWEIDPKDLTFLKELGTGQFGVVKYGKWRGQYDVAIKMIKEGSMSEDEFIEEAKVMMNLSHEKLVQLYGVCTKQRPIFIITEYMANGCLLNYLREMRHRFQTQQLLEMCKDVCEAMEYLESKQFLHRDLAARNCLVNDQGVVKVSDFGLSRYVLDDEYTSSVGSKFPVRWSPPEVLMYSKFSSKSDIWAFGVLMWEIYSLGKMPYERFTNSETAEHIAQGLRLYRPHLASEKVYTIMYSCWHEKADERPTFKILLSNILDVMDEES
Sequence of Tyrosine-protein kinase Mer (Homo sapiens) (Q12866 whole entry): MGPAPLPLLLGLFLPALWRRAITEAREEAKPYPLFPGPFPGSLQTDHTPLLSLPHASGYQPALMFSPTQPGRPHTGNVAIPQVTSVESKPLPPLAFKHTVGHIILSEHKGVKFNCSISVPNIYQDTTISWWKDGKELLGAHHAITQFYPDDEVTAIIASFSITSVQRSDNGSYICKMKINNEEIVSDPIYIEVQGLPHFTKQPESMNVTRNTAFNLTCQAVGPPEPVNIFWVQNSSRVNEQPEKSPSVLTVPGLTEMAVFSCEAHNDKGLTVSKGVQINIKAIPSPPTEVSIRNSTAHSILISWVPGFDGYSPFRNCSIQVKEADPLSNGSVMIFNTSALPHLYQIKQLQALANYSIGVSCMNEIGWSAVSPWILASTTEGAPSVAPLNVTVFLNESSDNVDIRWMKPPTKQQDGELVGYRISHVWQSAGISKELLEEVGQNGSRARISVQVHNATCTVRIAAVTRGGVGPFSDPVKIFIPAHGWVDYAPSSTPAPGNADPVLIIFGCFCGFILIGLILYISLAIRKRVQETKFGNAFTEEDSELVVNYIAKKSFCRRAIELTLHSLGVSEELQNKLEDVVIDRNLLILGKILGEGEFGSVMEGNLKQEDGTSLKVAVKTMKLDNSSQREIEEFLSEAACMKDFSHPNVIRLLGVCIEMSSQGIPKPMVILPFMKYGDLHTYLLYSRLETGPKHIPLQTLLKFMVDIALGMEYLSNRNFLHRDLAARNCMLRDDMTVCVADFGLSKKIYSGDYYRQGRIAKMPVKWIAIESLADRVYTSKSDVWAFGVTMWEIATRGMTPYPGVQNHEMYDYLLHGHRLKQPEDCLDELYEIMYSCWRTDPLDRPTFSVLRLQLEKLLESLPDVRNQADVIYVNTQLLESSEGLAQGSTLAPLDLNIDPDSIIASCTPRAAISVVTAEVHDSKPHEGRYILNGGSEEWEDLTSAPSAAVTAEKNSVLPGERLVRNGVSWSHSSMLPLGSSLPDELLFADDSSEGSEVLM
Sequence of Tyrosine-protein kinase Mer (Q12866 whole entry): as above
Sequence of CYP3A4 (P08684 whole entry): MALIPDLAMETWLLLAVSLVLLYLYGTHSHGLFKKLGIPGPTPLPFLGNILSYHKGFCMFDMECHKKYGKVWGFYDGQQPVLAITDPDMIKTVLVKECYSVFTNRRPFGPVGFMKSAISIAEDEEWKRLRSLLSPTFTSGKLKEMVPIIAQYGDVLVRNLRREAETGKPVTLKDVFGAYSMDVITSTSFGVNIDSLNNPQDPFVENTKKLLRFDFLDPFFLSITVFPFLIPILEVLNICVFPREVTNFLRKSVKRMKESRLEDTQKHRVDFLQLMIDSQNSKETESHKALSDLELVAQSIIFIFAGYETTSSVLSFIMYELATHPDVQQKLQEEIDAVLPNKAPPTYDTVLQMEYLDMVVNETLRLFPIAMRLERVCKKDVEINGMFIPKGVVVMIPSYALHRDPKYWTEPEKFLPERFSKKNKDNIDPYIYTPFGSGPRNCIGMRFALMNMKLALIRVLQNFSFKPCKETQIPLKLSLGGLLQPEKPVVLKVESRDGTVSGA
Sequence of Serine/threonine-protein kinase 17B (O94768 whole entry): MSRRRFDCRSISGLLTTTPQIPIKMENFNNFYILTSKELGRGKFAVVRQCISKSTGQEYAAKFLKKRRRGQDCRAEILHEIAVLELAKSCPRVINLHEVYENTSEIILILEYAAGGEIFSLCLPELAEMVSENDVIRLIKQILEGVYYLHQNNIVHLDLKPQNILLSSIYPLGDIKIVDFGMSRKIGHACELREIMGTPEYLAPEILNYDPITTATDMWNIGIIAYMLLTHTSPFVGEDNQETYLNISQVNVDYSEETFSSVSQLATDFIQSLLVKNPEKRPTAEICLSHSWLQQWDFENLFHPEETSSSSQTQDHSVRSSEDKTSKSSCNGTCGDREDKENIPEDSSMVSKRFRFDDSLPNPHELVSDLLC
Sequence of Serine/threonine-protein kinase 17B (Homo sapiens) (O94768 whole entry): as above
Sequence of CYP2D6 (P10635 whole entry): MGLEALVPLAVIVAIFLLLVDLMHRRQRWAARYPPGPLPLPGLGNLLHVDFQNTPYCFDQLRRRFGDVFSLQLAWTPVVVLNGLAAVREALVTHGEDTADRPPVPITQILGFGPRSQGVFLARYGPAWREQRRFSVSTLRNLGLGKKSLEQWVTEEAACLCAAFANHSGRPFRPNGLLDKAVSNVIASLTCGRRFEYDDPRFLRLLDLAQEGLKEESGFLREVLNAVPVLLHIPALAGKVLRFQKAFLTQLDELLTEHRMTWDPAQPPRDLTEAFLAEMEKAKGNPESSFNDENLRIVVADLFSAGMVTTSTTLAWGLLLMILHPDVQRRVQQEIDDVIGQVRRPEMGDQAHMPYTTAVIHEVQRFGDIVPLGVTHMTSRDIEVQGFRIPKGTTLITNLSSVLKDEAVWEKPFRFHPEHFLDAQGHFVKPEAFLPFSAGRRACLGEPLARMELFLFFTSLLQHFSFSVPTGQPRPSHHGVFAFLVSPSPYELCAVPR

## C[C@@H]1COCCN1c1nc(-c2cncc3[nH]ccc23)nc2c1ccn2S(C)(=O)=O
[1]
  IC50: > 10000 nM
[2]
  AUC(0-inf): 46700 ng·h/mL
[3]
  logD: 3.11
CYP2C19
  inhibition at 10 µM: 0%
PC-3
  IC50: 780 nM
DLD-1
  IC50: 460 nM
[4]
  inhibition: 1.11%
OCI-Ly10
  IC50: 100 nM
[5]
  efflux ratio: 4.81
[6]
  IC50: > 10000 nM
[7]
  IC50: > 10000 nM
LoVo
  IC50: 150 nM
[8]
  AUC(0-t) at 24 h: 46700 ng·h/mL
Aurora kinase B [9]
  IC50: > 10000 nM
[10]
  inhibition: 24.6%
[11]
  inhibition: 62.8%
A2780
  IC50: 90 nM
SUD4
  IC50: 300 nM
[12]
  IC50: > 10000 nM
[13]
  inhibition: 5.98%
[14]
  IC50: > 10000 nM
[15]
  inhibition: 35.7%
[16]
  Tmax: 0.5 h
[17]
  inhibition: 102%
[18]
  IC50: 4950 nM
[19]
  Cmax: 18900 ng/mL
[20]
  Papp B→A: 29 ×10⁻⁶ cm/s
Aurora kinase B [21]
  inhibition: 22.5%
[22]
  IC50: > 10000 nM
[23]
  half-life: 2.01 h
[24]
  inhibition: 21.6%
[25]
  efflux ratio: 1.41
Granta-519
  IC50: 100 nM
[26]
  IC50: > 10000 nM
ATR/ATRIP
  IC50: 1.6 nM
[27]
  fraction unbound: 0.006
CYP2C9
  inhibition at 10 µM: 0%
[28]
  Papp A→B: 21.5 ×10⁻⁶ cm/s
CYP2D6
  inhibition at 10 µM: 3.71%
CAPAN-1
  IC50: 820 nM
[29]
  IC50: > 10000 nM
[30]
  inhibition: 13.3%
[31]
  IC50: > 10000 nM
[32]
  Papp A→B: 6.02 ×10⁻⁶ cm/s
[33]
  inhibition: 20.5%
[34]
  inhibition: 41.8%
[35]
  inhibition: 79.2%
[36]
  IC50: 22.4 nM
AMPK alpha2/beta1/gamma1
  IC50: > 10000 nM
CYP1A2
  inhibition at 10 µM: 28.6%
CYP3A4
  inhibition at 10 µM: 18.6%
NCI-H446
  IC50: 230 nM
[37]
  IC50: > 10000 nM
[38]
  inhibition: 29.5%
HT-29
  IC50: 350 nM
[39]
  inhibition: 46.1%
[40]
  Papp B→A: 30.2 ×10⁻⁶ cm/s
HCT-116
  IC50: 150 nM
[41]
  IC50: > 10000 nM
